Measured values: PubChem BioAssay AID2060333 (Molecular Pharmacology Branch, DTP, NCI, 2025)
pIC50: −log10 of the molar value. Several values for one entry are separate records, joined by “and”; a condition that tells them apart may be missing. Equal values may be shown once.

Test system: 845751-090-R-J2-PDC tumor spheroid viability
Assay: Anticancer human tumor 845751-090-R-J2-PDC patient-derived head and neck squamous carcinoma cell line growth inhibition [IpAb]
Settings: spheroids with HUVEC and MSC; for viability, T/C: stronger effect = lower value
Summary of the method: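 Multi-cell spheroids of 60% tumour cells, 25% HUVEC and 15% MSC in ultra-low-attachment U-bottom wells, treated with agents combined with ipatasertib or abemaciclib. Half-log ranges top out near clinical Cmax, or 10 microM when Cmax is unknown.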

[1] = curve of first compound, second compound 0.1 µM
[2] = curve of first compound, second compound 0.316 µM
[3] = curve of first compound, second compound 1 µM
[4] = curve of first compound, second compound 3.16 µM
[5] = curve of first compound, second compound 10 µM
[6] = second compound 0.1 µM, first compound 0.0316 µM
[7] = second compound 0.1 µM, first compound 0.1 µM
[8] = second compound 0.1 µM, first compound 0.316 µM
[9] = second compound 0.1 µM, first compound 1 µM
[10] = second compound 0.1 µM, first compound 3.16 µM
[11] = second compound 0.1 µM, first compound 10 µM
[12] = second compound 0.316 µM, first compound 0.0316 µM
[13] = second compound 0.316 µM, first compound 0.1 µM
[14] = second compound 0.316 µM, first compound 0.316 µM
[15] = second compound 0.316 µM, first compound 1 µM
[16] = second compound 0.316 µM, first compound 3.16 µM
[17] = second compound 0.316 µM, first compound 10 µM
[18] = second compound 1 µM, first compound 0.0316 µM
[19] = second compound 1 µM, first compound 0.1 µM
[20] = second compound 1 µM, first compound 0.316 µM
[21] = second compound 1 µM, first compound 1 µM
[22] = second compound 1 µM, first compound 3.16 µM
[23] = second compound 1 µM, first compound 10 µM
[24] = second compound 3.16 µM, first compound 0.0316 µM
[25] = second compound 3.16 µM, first compound 0.1 µM
[26] = second compound 3.16 µM, first compound 0.316 µM
[27] = second compound 3.16 µM, first compound 1 µM
[28] = second compound 3.16 µM, first compound 3.16 µM
[29] = second compound 3.16 µM, first compound 10 µM
[30] = second compound 10 µM, first compound 0.0316 µM
[31] = second compound 10 µM, first compound 0.1 µM
[32] = second compound 10 µM, first compound 0.316 µM
[33] = second compound 10 µM, first compound 1 µM
[34] = second compound 10 µM, first compound 3.16 µM
[35] = second compound 10 µM, first compound 10 µM
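Also: spheroids exposed to compounds for 7 days before readout.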
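For viability, T/C in this document: CTG3D luminescence normalised so that 100% = DMSO vehicle control.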

In the case of `CC(=O)c1c(C)c2cnc(Nc3ccc(N4CCNCC4)cn3)nc2n(C2CCCC2)c1=O` + CC(C)NCC(C(=O)N1CCN(c2ncnc3c2C(C)CC3O)CC1)c1ccc(Cl)cc1, the pIC50 [1] was < 6.52, the pIC50 [2] was > 9.02 and the pIC50 [3] was > 9.02. For the same molecule, the pIC50 [4] was > 9.02, the pIC50 [5] was > 9.02 and the viability, T/C (second compound 0.1 µM, first compound 0.000949 µM) was 62.6%. It also gave a viability, T/C (second compound 0.1 µM, first compound 0.003 µM) of 64.7%, a viability, T/C (second compound 0.1 µM, first compound 0.00949 µM) of 51.6% and a viability, T/C (second compound 0.1 µM, first compound 0.03 µM) of 53.5%. The viability, T/C (second compound 0.1 µM, first compound 0.0949 µM) was 71.8%, the viability, T/C (second compound 0.1 µM, first compound 0.3 µM) was 68.5% and the viability, T/C (second compound 0.316 µM, first compound 0.000949 µM) was 39.1%. For the same molecule, the viability, T/C (second compound 0.316 µM, first compound 0.003 µM) was 33.9%, the viability, T/C (second compound 0.316 µM, first compound 0.00949 µM) was 32.4% and the viability, T/C (second compound 0.316 µM, first compound 0.03 µM) was 28.6%. It also gave a viability, T/C (second compound 0.316 µM, first compound 0.0949 µM) of 28.4%, a viability, T/C (second compound 0.316 µM, first compound 0.3 µM) of 34.1% and a viability, T/C (second compound 1 µM, first compound 0.000949 µM) of 26.6%. The viability, T/C (second compound 1 µM, first compound 0.003 µM) was 29.3%, the viability, T/C (second compound 1 µM, first compound 0.00949 µM) was 24.1% and the viability, T/C (second compound 1 µM, first compound 0.03 µM) was 34.8%. It also gave a viability, T/C (second compound 1 µM, first compound 0.0949 µM) of 37.3%, a viability, T/C (second compound 1 µM, first compound 0.3 µM) of 22.9% and a viability, T/C (second compound 3.16 µM, first compound 0.000949 µM) of 29.4%. For the same molecule, the viability, T/C (second compound 3.16 µM, first compound 0.003 µM) was 26.1%, the viability, T/C (second compound 3.16 µM, first compound 0.00949 µM) was 26.2% and the viability, T/C (second compound 3.16 µM, first compound 0.03 µM) was 26.6%. The viability, T/C (second compound 3.16 µM, first compound 0.0949 µM) was 18%, the viability, T/C (second compound 3.16 µM, first compound 0.3 µM) was 21.7% and the viability, T/C (second compound 10 µM, first compound 0.000949 µM) was 16.4%. The viability, T/C (second compound 10 µM, first compound 0.003 µM) was 15.8%, the viability, T/C (second compound 10 µM, first compound 0.00949 µM) was 13.7% and the viability, T/C (second compound 10 µM, first compound 0.03 µM) was 13.8%. The viability, T/C (second compound 10 µM, first compound 0.0949 µM) was 11.3% and the viability, T/C (second compound 10 µM, first compound 0.3 µM) was 11.5%.
`Cn1nccc1Nc1nccc(-c2ccn(C(CO)c3ccc(Cl)c(F)c3)c(=O)c2)n1` (stereo not drawn) was tested, and the viability, T/C (compound 0.0316 µM) was 128% and 195%, the viability, T/C (compound 0.1 µM) was 141% and 196% and the viability, T/C (compound 0.316 µM) was 155% and 220%. For the same molecule, the viability, T/C (compound 1 µM) was 168% and 256%, the viability, T/C (compound 3.16 µM) was 149% and 198% and the viability, T/C (compound 10 µM) was 85.6% and 134%. The pIC50 (curve of compound) was < 5.00.
With `COc1c(OCCCN2CCOCC2)ccc2c3n(c(=NC(=O)c4cnc(N)nc4)nc12)CCN3` the viability, T/C (compound 0.00316 µM) was 85.1% and 76.3%, the viability, T/C (compound 0.01 µM) was 62.6% and 60.3% and the viability, T/C (compound 0.0316 µM) was 36.9% and 35.4%. For the same molecule, the viability, T/C (compound 0.1 µM) was 19.8% and 22.2%, the viability, T/C (compound 0.316 µM) was 13.8% and 16.1% and the viability, T/C (compound 1 µM) was 4.09% and 9.06%. The pIC50 (curve of compound) was 7.75 and 7.79.
With `Cn1ncnc1[C@H]1c2n[nH]c(=O)c3cc(F)cc(c23)N[C@@H]1c1ccc(F)cc1` the viability, T/C (compound 0.000316 µM) was 81.7% and 97.4%, the viability, T/C (compound 0.001 µM) was 80% and 90.8% and the viability, T/C (compound 0.00316 µM) was 137% and 113%. The viability, T/C (compound 0.01 µM) was 105% and 91.3%, the viability, T/C (compound 0.0316 µM) was 100% and 106% and the viability, T/C (compound 0.1 µM) was 96.4% and 111%. The pIC50 (curve of compound) was < 7.00.
`Cc1nc(NC(=O)N2CCCC2C(N)=O)sc1-c1ccnc(C(C)(C)C(F)(F)F)c1` (stereo not drawn) + CC(C)NCC(C(=O)N1CCN(c2ncnc3c2C(C)CC3O)CC1)c1ccc(Cl)cc1 was tested, and the pIC50 [1] was 6.97, the pIC50 [2] was > 7.50 and the pIC50 [3] was > 7.50. The pIC50 [4] was > 7.50, the pIC50 [5] was > 7.50 and the viability, T/C [6] was 49.2%. It also gave a viability, T/C [7] of 54%, a viability, T/C [8] of 27.6% and a viability, T/C [9] of 19.2%. For the same molecule, the viability, T/C [10] was 15.5%, the viability, T/C [11] was 8.29% and the viability, T/C [12] was 24.5%. The viability, T/C [13] was 30.9%, the viability, T/C [14] was 20.9% and the viability, T/C [15] was 15.6%. For the same molecule, the viability, T/C [16] was 13.1%, the viability, T/C [17] was 7.03% and the viability, T/C [18] was 17.4%. The viability, T/C [19] was 21.7%, the viability, T/C [20] was 18% and the viability, T/C [21] was 13.8%. It also gave a viability, T/C [22] of 10.6%, a viability, T/C [23] of 7.97% and a viability, T/C [24] of 16%. It also gave a viability, T/C [25] of 15.8%, a viability, T/C [26] of 14.1% and a viability, T/C [27] of 12.7%. It also gave a viability, T/C [28] of 9.92%, a viability, T/C [29] of 7.77% and a viability, T/C [30] of 13.9%. For the same molecule, the viability, T/C [31] was 13.1%, the viability, T/C [32] was 17.2% and the viability, T/C [33] was 12%. It also gave a viability, T/C [34] of 9.58% and a viability, T/C [35] of 5.74%.
`Cn1ncc(Cl)c1-c1cc(C(=O)NC(CN)Cc2cccc(F)c2)sc1Cl` (stereo not drawn) + CC(C)NCC(C(=O)N1CCN(c2ncnc3c2C(C)CC3O)CC1)c1ccc(Cl)cc1 was tested, and the pIC50 [1] was 6.73, the pIC50 [2] was > 7.50 and the pIC50 [3] was > 7.50. For the same molecule, the pIC50 [4] was > 7.50, the pIC50 [5] was > 7.50 and the viability, T/C [6] was 84.6%. It also gave a viability, T/C [7] of 59.2%, a viability, T/C [8] of 33.2% and a viability, T/C [9] of 37%. The viability, T/C [10] was 12.1%, the viability, T/C [11] was 0.32% and the viability, T/C [12] was 46.6%. It also gave a viability, T/C [13] of 35.4%, a viability, T/C [14] of 37.3% and a viability, T/C [15] of 34.4%. The viability, T/C [16] was 13.6%, the viability, T/C [17] was 0.51% and the viability, T/C [18] was 39.3%. The viability, T/C [19] was 37.9%, the viability, T/C [20] was 37.2% and the viability, T/C [21] was 27.1%. It also gave a viability, T/C [22] of 8.86%, a viability, T/C [23] of 0.24% and a viability, T/C [24] of 29%. The viability, T/C [25] was 27%, the viability, T/C [26] was 26.3% and the viability, T/C [27] was 24.2%. For the same molecule, the viability, T/C [28] was 8.88%, the viability, T/C [29] was 0.54% and the viability, T/C [30] was 17.5%. It also gave a viability, T/C [31] of 16.1%, a viability, T/C [32] of 24.5% and a viability, T/C [33] of 13.5%. For the same molecule, the viability, T/C [34] was 7.33% and the viability, T/C [35] was 0.88%.
In the case of `Cn1ncc(Cl)c1-c1cc(C(=O)NC(CN)Cc2cccc(F)c2)sc1Cl` (stereo not drawn), the viability, T/C (compound 0.0316 µM) was 105% and 86.6%, the viability, T/C (compound 0.1 µM) was 76.1% and 51.8% and the viability, T/C (compound 0.316 µM) was 52.6% and 32.5%. For the same molecule, the viability, T/C (compound 1 µM) was 38.7% and 29.1%, the viability, T/C (compound 3.16 µM) was 16% and 10.7% and the viability, T/C (compound 10 µM) was 1.14% and 1.09%. The pIC50 (curve of compound) was 6.33 and 6.86.
